Source: patent US20260053811A1, “METHODS OF TREATING HYPERTENSION IN OBESE SUBJECTS” (Mineralys Therapeutics, Inc., priority 2022, published 2026)

System: hypertensive subjects
Experiment: Seated automated office blood pressure (AOBP) in randomized, placebo-controlled, dose-ranging study
Format: in vivo, human
Conditions: Part 1
Protocol: A randomized, double-blinded, placebo-controlled, dose-ranging, multicenter study was conducted to evaluate the effect of orally administered Compound A HBr on blood pressure for the treatment of hypertension in male and female subjects ≥18 years of age.
The study consists of two parts. For enrollment into Part 1 of the study, a subject's value of plasma renin activity (PRA) must be ≤1 ng/mL/h based on morning measurement. If the value of PRA >1 ng/mL/h based on morning measurement, then subjects may be eligible to enter Part 2 of the study.
For Part 1, 163 enrolled subjects ≥18 years of age were randomized into 6 equal treatment groups (1:1:1:1:1:1) to 12.5 mg BID, 25 mg BID, 12.5 mg QD, 50 mg QD, 100 mg QD, or placebo. After a review of interim clinical data, the 2 lowest dose levels (12.5 mg QD and 12.5 mg BID) were stopped for future randomization due to a lack of consistent meaningful reduction of blood pressure, but the patients randomized to that point remained in the study through completion. Thus, after the review of interim clinical data, subjects were randomized into 4 equal treatment groups (1:1:1:1) to 25 mg BID, 50 mg QD, 100 mg QD, or placebo.
For Part 2, 36 enrolled subjects ≥18 years of age were randomized (5:1) to either 100 mg QD Compound A HBr or placebo such that the Compound A HBr treatment group consisted of approximately 30 subjects and the placebo treatment group will consist of approximately 6 subjects.
Subjects orally administered the assigned study drug (Compound A HBr or placebo) according to the assigned dosing regimen for 8 weeks beginning on Study Day 1. All subjects in Part 1 (regardless of dosing group) received BID dosing to preserve the integrity of the blind; active drug is administered as the morning dose for all QD dose groups. Subjects returned to the research facility or were seen by the clinical investigator or approved home health care professional at the end of Study Weeks 1, 2, 3, 4, 5, 6, 7, and 8 (±2 days) for protocol-defined efficacy and safety assessments and procedures, assessment of adverse events (AEs), and confirmation of compliance with study drug usage. Subjects also completed a telephone visit and blood pressure (BP) check at home approximately 3 days post last dose of study drug. Subjects attended up to 14 full clinic visits, including a pre-Screening visit, a Screening/start of Placebo Run-in visit, a second visit during Placebo Run-in, a clinic visit to initiate the ABPM procedure, a Randomization visit, 8 weekly visits during double-blind treatment, and an end-of-study visit scheduled 4 weeks after the last study treatment for final efficacy and safety assessments.
An automated oscillometric sphygmomanometer device was used to measure the subjects' systolic and diastolic blood pressure in office after approximately 5 minutes of rest in the seated position.
The primary endpoint is the change in office-measured (mean of last 2 of 5 unattended measurements using an automated oscillometric sphygmomanometer device after approximately 5 minutes of rest in the seated position) systolic blood pressure (SBP) from baseline to the end of Study Week 8.
Secondary endpoints of this study were: • (a) Change in 24-hour ambulatory blood pressure monitoring (ABPM) parameters (systolic and diastolic) from baseline to the end of Study Week 7. • (b) Change in office-measured SBP from baseline to the end of Study Weeks 1, 2, 3, 4, 5, 6, and 7. • (c) Change in office-measured diastolic blood pressure (DBP) from baseline to the end of Study Weeks 1, 2, 3, 4, 5, 6, 7, and 8. • (d) Proportion of subjects who achieve office-measured BP of ≤130/80 mm Hg by the end of Study Week 8.

[1] = 25 mg BID, BMI at baseline 25-30 kg/m^2
[2] = 25 mg BID, BMI at baseline <25 kg/m^2
[3] = 25 mg BID, BMI at baseline >30 kg/m^2
[4] = 25 mg BID, Seated SBP Tertile High
[5] = 25 mg BID, Seated SBP Tertile Low
[6] = 25 mg BID, Seated SBP Tertile Middle
[7] = 25 mg BID, Systolic Blood Pressure Tertile at Baseline High
[8] = 25 mg BID, Systolic Blood Pressure Tertile at Baseline Low
[9] = 25 mg BID, Systolic Blood Pressure Tertile at Baseline Middle
[10] = 25 mg BID, Thiazide Diuretic Use at Baseline No
[11] = 25 mg BID, Thiazide Diuretic Use at Baseline Yes

With `CC(=O)N[C@H]1CC[C@H](NC(=O)CN2CCN(c3nncc(-c4ccc(C)cc4)n3)CC2)CC1` [Compound A HBr] the “Mean (SD) Change from Baseline at Week 8 in Automated Office-Measured Diastolic Blood Pressure” value (25 mg BID, BMI >30 kg/m^2) was −5.33 (8.88) mmHg, the “Mean (SD) Automated Office-Measured Systolic Blood Pressure at Wk 8” value [1] was 134.11 (15.72) mmHg and the “Mean (SD) Change from Baseline at Week 8 in Automated Office-Measured Systolic Blood Pressure” value [1] was −4.89 (13.17) mmHg. For the same compound, the “Mean (SD) Automated Office-Measured Systolic Blood Pressure at Wk 8” value [2] was 126.25 (18.52) mmHg, the “Mean (SD) Change from Baseline at Week 8 in Automated Office-Measured Systolic Blood Pressure” value [2] was −18.13 (15.56) mmHg and the “Mean (SD) Automated Office-Measured Systolic Blood Pressure at Wk 8” value [3] was 130.93 (17.43) mmHg. For the same compound, the “Mean (SD) Change from Baseline at Week 8 in Automated Office-Measured Systolic Blood Pressure” value [3] was −11.13 (13.83) mmHg, the “Mean (SD) Automated Office-Measured Diastolic Blood Pressure at Wk 8” value (25 mg BID, Race Black or AA) was 75.43 (10.05) mmHg and the “Mean (SD) Automated Office-Measured Systolic Blood Pressure at Wk 8” value (25 mg BID, Race Black or AA) was 124.00 (15.68) mmHg. The “Mean (SD) Change from Baseline at Week 8 in Automated Office-Measured Diastolic Blood Pressure” value (25 mg BID, Race Black or AA) was −7.79 (9.03) mmHg, the “Mean (SD) Change from Baseline at Week 8 in Automated Office-Measured Systolic Blood Pressure” value (25 mg BID, Race Black or AA) was −13.29 (15.91) mmHg and the “Mean (SD) Automated Office-Measured Diastolic Blood Pressure at Wk 8” value (25 mg BID, Race Other) was 75.43 (14.14) mmHg. For the same compound, the “Mean (SD) Automated Office-Measured Systolic Blood Pressure at Wk 8” value (25 mg BID, Race Other) was 133.71 (16.53) mmHg, the “Mean (SD) Change from Baseline at Week 8 in Automated Office-Measured Diastolic Blood Pressure” value (25 mg BID, Race Other) was −2.31 (12.36) mmHg and the “Mean (SD) Change from Baseline at Week 8 in Automated Office-Measured Systolic Blood Pressure” value (25 mg BID, Race Other) was −9.07 (13.59) mmHg. For the same compound, the “Mean (SD) Automated Office-Measured Diastolic Blood Pressure at Wk 8” value [4] was 74.00 (7.39) mmHg, the “Mean (SD) Change from Baseline at Week 8 in Automated Office-Measured Diastolic Blood Pressure” value [4] was −7.36 (5.62) mmHg and the “Mean (SD) Automated Office-Measured Diastolic Blood Pressure at Wk 8” value [5] was 72.40 (9.55) mmHg. The “Mean (SD) Change from Baseline at Week 8 in Automated Office-Measured Diastolic Blood Pressure” value [5] was −6.15 (8.84) mmHg, the “Mean (SD) Automated Office-Measured Diastolic Blood Pressure at Wk 8” value [6] was 79.09 (17.89) mmHg and the “Mean (SD) Change from Baseline at Week 8 in Automated Office-Measured Diastolic Blood Pressure” value [6] was 0.91 (15.57) mmHg. For the same compound, the “Mean (SD) Automated Office-Measured Diastolic Blood Pressure at Wk 8” value (25 mg BID, Sex Female) was 77.12 (15.02) mmHg, the “Mean (SD) Automated Office-Measured Systolic Blood Pressure at Wk 8” value (25 mg BID, Sex Female) was 132.88 (16.99) mmHg and the “Mean (SD) Change from Baseline at Week 8 in Automated Office-Measured Diastolic Blood Pressure” value (25 mg BID, Sex Female) was −2.41 (13.79) mmHg. The “Mean (SD) Change from Baseline at Week 8 in Automated Office-Measured Systolic Blood Pressure” value (25 mg BID, Sex Female) was −10.62 (14.75) mmHg, the “Mean (SD) Automated Office-Measured Diastolic Blood Pressure at Wk 8” value (25 mg BID, Sex Male) was 72.82 (9.34) mmHg and the “Mean (SD) Automated Office-Measured Systolic Blood Pressure at Wk 8” value (25 mg BID, Sex Male) was 128.82 (16.45) mmHg. The “Mean (SD) Change from Baseline at Week 8 in Automated Office-Measured Diastolic Blood Pressure” value (25 mg BID, Sex Male) was −5.64 (7.70) mmHg, the “Mean (SD) Change from Baseline at Week 8 in Automated Office-Measured Systolic Blood Pressure” value (25 mg BID, Sex Male) was −9.36 (13.49) mmHg and the “Mean (SD) Automated Office-Measured Systolic Blood Pressure at Wk 8” value [7] was 139.86 (16.99) mmHg. For the same compound, the “Mean (SD) Change from Baseline at Week 8 in Automated Office-Measured Systolic Blood Pressure” value [7] was −14.14 (13.63) mmHg, the “Mean (SD) Automated Office-Measured Systolic Blood Pressure at Wk 8” value [8] was 120.70 (13.06) mmHg and the “Mean (SD) Change from Baseline at Week 8 in Automated Office-Measured Systolic Blood Pressure” value [8] was −12.50 (13.48) mmHg. For the same compound, the “Mean (SD) Automated Office-Measured Systolic Blood Pressure at Wk 8” value [9] was 135.45 (15.29) mmHg, the “Mean (SD) Change from Baseline at Week 8 in Automated Office-Measured Systolic Blood Pressure” value [9] was −5.41 (14.64) mmHg and the “Automated Office-Measured Diastolic Blood Pressure, Week 8, Mean (SD)” value [10] was 74.36 (8.31) mmHg. The “Mean (SD) Automated Office-Measured Systolic Blood Pressure at Wk 8” value [10] was 132.45 (15.21) mmHg, the “Mean (SD) Change from Baseline at Week 8 in Automated Office-Measured Diastolic Blood Pressure” value [10] was −6.09 (7.34) mmHg and the “Mean (SD) Change from Baseline at Week 8 in Automated Office-Measured Systolic Blood Pressure” value [10] was −9.32 (14.08) mmHg. For the same compound, the “Automated Office-Measured Diastolic Blood Pressure, Week 8, Mean (SD)” value [11] was 76.12 (15.60) mmHg, the “Mean (SD) Automated Office-Measured Systolic Blood Pressure at Wk 8” value [11] was 130.53 (17.84) mmHg and the “Mean (SD) Change from Baseline at Week 8 in Automated Office-Measured Diastolic Blood Pressure” value [11] was −2.12 (13.83) mmHg. For the same compound, the “Mean (SD) Change from Baseline at Week 8 in Automated Office-Measured Systolic Blood Pressure” value [11] was −10.65 (14.39) mmHg, the “Mean (SD) Automated Office-Measured Systolic Blood Pressure at Wk 8” value (50 mg QD, ACEi/ARB No) was 131.13 (13.27) mmHg and the “Mean (SD) Change from Baseline at Week 8 in Automated Office-Measured Systolic Blood Pressure” value (50 mg QD, ACEi/ARB No) was −6.75 (15.62) mmHg. The “Mean (SD) Automated Office-Measured Systolic Blood Pressure at Wk 8” value (50 mg QD, ACEi/ARB Yes) was 127.65 (14.07) mmHg.
